One test concerns the target ai5γ group II intron. Nature of the test: Radioanalytic self-splicing assay of SE RNA (Ki). The test is classed as biochemical, Saccharomyces cerevisiae. The settings on record: 8 mM MgCl2, 100 mM KCl, pH 7.5, 30° C. As to the method:
Internally labeled SE RNA (2 nM) was incubated with various concentrations of inhibitor compound under near-physiological conditions (in 50 mM MOPS, pH 7.5, 8 mM MgCl2, 100 mM KCl) at 30° C. Aliquots at different time points were quenched and analyzed on 5% denaturing polyacrylamide gel as previously described (Daniels et al., 1996, Journal of molecular biology, 256:31-49). Data were fit to a single-exponential equation to determine the first order rate constants (kobs). The latter were then plotted against the concentration of the inhibitor and fit to the equation for non-competitive inhibition to determine Ki values: kobs=kmax/(1+[I]/Ki), where kobs and kmax are the first order rate constants measured in the presence and in the absence of the inhibitor, respectively, [I] is the concentration of the inhibitor and Ki is the inhibition constant. Experiments were performed four times for API-014, three times for APY-090, Intronistat A, and Intronistat B and twice for the remaining compounds to ensure reproducibility. Data represent average±s.e.m.

The next test deals with HEK-293T cells. Nature of the test: Cytotoxicity in HEK-293T cells (Cell Titer Glo). The format is cell-based, human. The conditions noted are these: Homo sapiens, cytotoxicity, 24 hours with compound, read-out: IC50 HEK-293. On the procedure: HEK-293T cells were cultured in Dulbecco's Modified Eagle's Medium (DMEM) (Gibco) supplemented with 10% Fetal Bovine Serum (FBS, Gibco) and 100 U/ml of Penicillin-Streptomycin (Gibco) at 37° C. and 5% CO2. For the cytotoxicity experiments, cells were aliquoted into black 96-well plates with a clear bottom (Corning 3603) at a concentration of 10,000 cells per well. The cells were grown at 37° C., 5% CO2 for 5-6 hours, then the medium was replaced with the same medium without FBS and cells were grown at 37° C., 5% CO2 for 24 hours. Freshly prepared stock solutions of test compounds (12.8 mg/ml in DMSO) were serially diluted 1:2 with DMSO into the first 11 successive wells of a 12-well row on a 96-well plate as described above. Well 12 was used as a growth control (no compound). […] After incubation, cell viability was determined using the luminescent Cell Titer Glo cell viability assay (Promega), in which 100 μl of the assay reagent was added to each well of the assay plate. After gentle shaking for 7-10 minutes, the plates were analyzed on a Synergy H1 plate reader (BioTek). Luminescence was plotted against the compound concentration and IC50 values were determined by fitting the data to a 4-parameter logistic function c+(d−c)/(1+(x/a)^b), where a is the IC50, b is the slope parameter, c is the minimum response and d is the maximum response. Experiments were replicated to ensure reproducibility.

The test system of another test is C. parapsilosis. Nature of the test: MIC determination against C. parapsilosis. The format is cell-based, Candida parapsilosis. The settings on record: Lodderomyces parapsilosis; RPMI-1640, 35° C. or 37° C., turbidity after 24 and 48 hours. On the procedure: Minimal inhibitory concentrations (MICs) for C. parapsilosis were determined in a final volume of 100 μl. Fresh stock solutions of control antifungal drugs (Amphotericin B and Itraconazole) and of test compounds were prepared at 3.2 mg/ml and at 12.8 mg/ml respectively in DMSO. After placing the stock in the first well, solutions of test compounds and antifungal controls were serially diluted 1:2 with DMSO into the first […] successive wells of a 12-well row on a 96-well plate (as described above). After dilution, 2.5 μl from each of these 10 wells were transferred onto a separate 96-well plate and diluted with 122.5 μl of RPMI-1640 medium (Sigma). Wells 11 and 12 contained 2.5 μl DMSO and 122.5 μl of RPMI-1640 as a positive growth control (no compound) and sterility control (no inoculum added). A 50 μl volume was taken from each of the RPMI dilutions (wells 1-12) and transferred to the wells of a third 96-well plate (assay plate), where they were mixed with an equal volume (50 μl) of freshly prepared inoculum of C. parapsilosis in RPMI-1640 medium, set at a density to provide the 0.5×10^3 to 2.5×10^3 colony forming units per 1 mL (except for the sterility control). Sterility control was mixed with 50 μl of sterile medium.
The final concentration range of the assay was 0.25-128 μg/ml for test compounds and 0.0625-32 μg/ml for Amphotericin B and Itraconazole. The final concentration of DMSO was 1%. The assay plate was incubated at 35° C. or 37° C. and visually analyzed for turbidity after 24 and 48 hours of incubation. The lowest compound concentration at which no growth was apparent is reported as the MIC. All experiments were performed in triplicate.

The test system of test [1] is ai5γ group II intron (D135 ribozyme). Nature of the test: Fluorescent D135 ribozyme cleavage assay (IC50). The test is classed as biochemical, Saccharomyces cerevisiae. The settings on record: D135 ribozyme cleavage of substrate 17/2 DL, 100 mM MgCl2, 500 mM KCl, 37° C., 10 minutes. On the procedure:
The D135 ribozyme (Su et al., 2005, Nucleic Acids Res, 33:6674-6687), fluorescently labeled oligo substrate 17/2 DL (FIG. 1A-FIG. 1D) (both at 20 nM final concentrations in 50 mM MOPS, pH 7.0, 100 mM MgCl2, 0.5M KCl), and the test compounds (final concentration of 10 μM in 50 mM MOPS, pH 7.0, 100 mM MgCl2, 0.5M KCl) were aliquoted onto black non-binding 384-well plates (Corning 3757) using the multidrop combi (ThermoFisherScientific) and pintool (V & P Scientific). The reaction mixtures were incubated at 37° C. for 45 minutes, then the reaction was quenched with 100 mM EDTA and fluorescence intensity was analyzed on a Tecan Infinite multimode plate reader (λex 520 nm, λem 560 nm, 5 nm bandwidth). Data were normalized to untreated wells and wells lacking the D135 ribozyme, and percent of inhibition was calculated using ActivityBase (IDBS). The Z′-factor was calculated as described (Zhang et al., 1999, J Biomol Screen, 4:67-73): Z′=1−3×(σp+σn)/|μp−μn|, • where μp and σn are mean value and standard deviation for the positive control (substrate only), and where μn and σn are mean value and standard deviation for the negative control (no compound). The average Z′-factor from the screen was 0.83±0.03. IC50 Measurement for the Small Molecule Inhibition of the D135 Ribozyme Cleavage Reaction.
Black 96-well plates (Corning 3695) were filled with 50 μl of solution containing 20 nM D135 ribozyme, 20 nM double-labeled substrate 17/2 DL and small molecule inhibitor in 50 mM MOPS, pH 7.0, 100 mM MgCl2 and 500 mM KCl. Small molecule inhibitors were tested at 19 different concentrations ranging from 5 nM to 1 mM. Plates were incubated at 37° C. for 10 minutes, then reaction mixtures were quenched with 100 mM EDTA and analyzed on the Synergy H1 plate reader (BioTek). Each experiment was performed in triplicate. Data were fit to a 4-parameter logistic function c+(d−c)/(1+(x/a)^b), where a is the IC50, b is the slope parameter, c is the minimum response and d is the maximum response. Data are reported as average±s.e.m

In brackets after ≈: the same amount, converted by molar mass. Some results are limits rather than exact numbers.

With `O=C1/C(=C/c2ccc(B(O)O)cc2)Oc2cc(O)cc(O)c21` [APY-006], at ai5γ group II intron, the affinity corresponds to a Ki of 55 µM.
Still for that read-out and setting: the figure for `COc1cccc(/C=N/NC(=O)c2ccc(B(O)O)cc2)c1O` [APY-018] is 660 µM.
On to `CCN(CC)Cc1ccc(-c2ccc(-c3nc(-c4cc(O)c(O)c(O)c4)cs3)cc2)cc1` [APY-092], for which the 50% inhibitory concentration (IC50) in the test on HEK-293T cells came to 24.8 µg/mL; in test [1], 1.3 µM. This compound displayed an MIC against C. parapsilosis of 16 µg/mL (≈ 35.8 µM).
For `CS(=O)(=O)c1ccc(C(=O)c2cc3cc(-c4ccc(CO)cc4)ccc3o2)cc1` [APY-099] the same measures were 8.2 µg/mL, more than 1000 µM and more than 128 µg/mL.
On to `O=C(c1ccc([N+](=O)[O-])cc1)c1cc2cc(-c3ccc(CO)cc3)ccc2o1` [APY-100], for which the half-maximal inhibitory concentration (IC50) in the test on HEK-293T cells is more than 128 µg/mL; in test [1], more than 1000 µM. In the test with C. parapsilosis, this compound displayed an MIC of more than 128 µg/mL.
On ai5γ group II intron, `O=C1/C(=C/c2cc(O)c(O)c(O)c2)Oc2cc(O)cc(O)c21` [Compound 1, reference compound] registered a Ki of 2.1 ± 0.6 µM. Besides, the half-maximal inhibitory concentration (IC50) was 2.3 ± 0.4 µM in test [1] and 2 µM in test [1] (listed as compound 1).
`Oc1cc(-c2csc(-c3ccc(Cl)cc3)n2)cc(O)c1O` [NED-2014]: the IC50 with HEK-293T cells was 0.6 µg/mL; in test [1] it was 46 ± 2 µM. In the test on C. parapsilosis, this compound gave an MIC of 8 µg/mL (≈ 25 µM).
For `O=C(c1cc(O)c(O)c(O)c1)N1CCN(c2ccccc2)CC1` [NED-2015] the same measures were 4.4 µg/mL, more than 1000 µM and 16 to 32 µg/mL (≈ 50.9 to 102 µM).
The matching figures for `Oc1cc(-c2nc3ccc(C(F)(F)F)cc3s2)cc(O)c1O` [NED-2016]: 1.5 µg/mL, more than 1000 µM and 4 µg/mL (≈ 12.2 µM).
Regarding `CN1CCC(CNC(=O)c2ccc3oc(C(=O)c4cc(O)c(O)c(O)c4)cc3c2)CC1` [NED-2023, N-((1-methylpiperidin-4-yl)methyl)-2-(3,4,5-trihydroxybenzoyl)-benzofuran-5-carboxamide], the values for the IC50 (in the test on HEK-293T cells; in test [1]) were 36 µg/mL and 6 ± 2 µM, respectively. This compound gave an MIC in the test with C. parapsilosis of 16 µg/mL (≈ 37.7 µM).
Regarding `CCCCNc1nc(-c2cc(O)c(O)c(O)c2)cs1` [NED-2034], the concentration for half-maximal inhibition (IC50) was 22 µg/mL with HEK-293T cells and more than 1000 µM in test [1]. This compound registered an MIC against C. parapsilosis of 8 to 16 µg/mL (≈ 28.5 to 57.1 µM).
The matching figures for `O=C(Nc1cc(O)c(O)c(O)c1)N1CCN(c2ccc(Cl)c(Cl)c2)CC1` [NED-2035]: 1.6 µg/mL, 55 ± 4 µM and more than 128 µg/mL.
The matching figures for `COc1ccc(/C=N/NC(=O)c2cc(O)c(O)c(O)c2)c(OC)c1` [NED-2036, N′-(2,4-dimethoxybenzylidene)-3,4,5-trihydroxybenzohydrazide]: 8.2 µg/mL, 14 ± 1 µM and 8 µg/mL (≈ 24.1 µM).
For `O=C(N/N=C/c1c(O)ccc2ccccc12)c1cc(O)c(O)c(O)c1` [NED-2037, (E)-3,4,5-trihydroxy-N′-((2-hydroxynaphthalen-1-yl)methylene)benzohydrazide] the same measures were 2.8 µg/mL, 1.8 ± 0.5 µM and 16 µg/mL (≈ 47.3 µM).
On to `Cc1[nH]c(/C=C/C(=O)c2cc(O)c(O)c(O)c2)c(C)c1C(=O)N1CCN(Cc2ccc(F)cc2)CC1` [NED-2040], for which the IC50 in the test on HEK-293T cells is 7.5 µg/mL; in test [1], more than 1000 µM. This compound also displayed a minimum inhibitory concentration (MIC) in the test with C. parapsilosis of 8 µg/mL (≈ 16.2 µM).
The matching figures for `CN(C)c1ccc(/C=N/NC(=O)c2cc(O)c(O)c(O)c2)cc1` [NED-2048, (E)-N′-(4-(dimethylamino)benzylidene)-3,4,5-trihydroxybenzohydrazide]: 9.8 µg/mL, 4 ± 1 µM and 4 to 8 µg/mL (≈ 12.7 to 25.4 µM).
For `O=C(N/N=C/c1cccc2ccccc12)c1cc(O)c(O)c(O)c1` [NED-2134, (E)-3,4,5-trihydroxy-N′-(naphthalen-1-ylmethylene)benzohydrazide] the same measures were 4.2 µg/mL, 3.3 ± 1 µM and 2 to 4 µg/mL (≈ 6.21 to 12.4 µM).
As for `O=C(N/N=C/c1ccc2ccccc2c1)c1cc(O)c(O)c(O)c1` [NED-2135, (E)-3,4,5-trihydroxy-N′-(naphthalen-2-ylmethylene)benzohydrazide], the figures for the concentration for half-maximal inhibition (IC50) (in the test on HEK-293T cells; in test [1]) were 2.4 µg/mL and 0.8 ± 0.2 µM, respectively. Also, in the test on C. parapsilosis, the MIC worked out at 2 µg/mL (≈ 6.21 µM).
On to `COc1ccc2cc(/C=N/NC(=O)c3cc(O)c(O)c(O)c3)ccc2c1` [NED-2136], for which the IC50 in the test on HEK-293T cells turned out to be 1 µg/mL; in test [1], 1.35 ± 0.15 µM. In addition, the minimum inhibitory concentration (MIC) in the test with C. parapsilosis turned out to be 2 µg/mL (≈ 5.68 µM).
For `COc1ccc2ccccc2c1/C=N/NC(=O)c1cc(O)c(O)c(O)c1` [NED-2173, (E)-3,4,5-trihydroxy-N′-((2-methoxynaphthalen-1-yl)methylene)benzohydrazide] the same measures were 8.6 µg/mL, 6 ± 1 µM and 8 µg/mL (≈ 22.7 µM).
For `C#CCOc1ccc2ccccc2c1/C=N/NC(=O)c1cc(O)c(O)c(O)c1` [NED-2174, (E)-3,4,5-trihydroxy-N′-((2-(prop-2-yn-1-yloxy)naphthalen-1-yl)methylene)benzohydrazide] the same measures were 2.7 µg/mL, 5 ± 1 µM and 4 to 8 µg/mL (≈ 10.6 to 21.3 µM).
The matching figures for `O=C(N/N=C/c1c(OCc2ccccn2)ccc2ccccc12)c1cc(O)c(O)c(O)c1` [NED-2175, (E)-3,4,5-trihydroxy-N′-((2-(pyridin-2-ylmethoxy)naphthalen-1-yl)methylene)benzohydrazide]: 14 µg/mL, 2.3 ± 0.8 µM and 4 to 8 µg/mL (≈ 9.31 to 18.6 µM).

Values taken from US12421257B2, “Compositions and methods for inhibiting group II intron RNA” (YALE UNIVERSITY, priority 2018, dated 2025).
